According to patent publication US10167279B2 (NOVARTIS AG, priority 2014, dated 2019):

What follows are molecules tested against C-Raf FL (Homo sapiens (Human), UniProt P04049, Y340E/Y341E) (assay: In vitro Raf activity determination (Alpha Screen, phospho-MEK), C-Raf FL (full length, Y340E/Y341E)). Conditions: ATP 1 μM; 60 min pre-incubation; 1 hour reaction; column head does not say FL or TR.
Format: biochemical
From the text: The activity of a compound according to the present invention can be assessed by well-known in vitro & in vivo methods. Raf inhibition data provided herein was obtained using the following procedures.
Sf9 cells co-expressing both proteins were lysed and subjected to immobilized nickel chromatography and eluted with Imidazole. A second column (StrepII binding column) was used and eluted with desthiobiotin. Protein Tags were removed using Prescission enzyme and the protein was further purified using a flowthrough step to remove tags.
C-Raf TR refers to a truncated C-Raf protein, a Δ1-324 deletion mutant. C-Raf FL refers to the full-length C-Raf protein.
Full length MEK1 with an inactivating K97R ATP binding site mutation is utilized as a RAF substrate. The MEK1 cDNA was subcloned with an N-terminal (his)6 tag into a vector for E. Coli expression. The MEK1 substrate was purified from E. Coli lysate by nickel affinity chromatography followed by anion exchange. The final MEK1 preparation was biotinylated (Pierce EZ-Link Sulfo-NHS-LC-Biotin) and concentrated.
Assay protocol: Raf and biotinylated Mek (kinase dead) were combined at 2× final concentrations in assay buffer (50 mM Tris, pH 7.5, 15 mM MgCl2, 0.01% BSA and 1 mM DTT) and dispensed […] per well in assay plates (Greiner white 384 well assay plates #781207) containing […] of 40× of a Raf kinase inhibitor test compound diluted in 100% DMSO. The plate was incubated for 60 minutes at room temperature. […] The reactions were stopped and the phosphorylated product was measured using a rabbit anti-p-MEK (Cell Signaling, #9121) antibody and the Alpha Screen IgG (ProteinA) detection Kit (PerkinElmer #6760617R), by the addition of […] to the well of a mixture of the antibody (1:2000 dilution) and detection beads (1:2000 dilution of both beads) in Stop/bead buffer (25 mM EDTA, 50 mM Tris, pH 7.5, 0.01% Tween20). The additions were carried out under dark conditions to protect the detection beads from light. A lid was placed on top of the plate and incubated for 1 hour at room temperature, after which the luminescence was read on a PerkinElmer Envision instrument. The concentration of each compound for 50% inhibition (IC50) was calculated by non-linear regression using XL Fit data analysis software.

Sequence of C-Raf FL (P04049 whole entry Y340E/Y341E): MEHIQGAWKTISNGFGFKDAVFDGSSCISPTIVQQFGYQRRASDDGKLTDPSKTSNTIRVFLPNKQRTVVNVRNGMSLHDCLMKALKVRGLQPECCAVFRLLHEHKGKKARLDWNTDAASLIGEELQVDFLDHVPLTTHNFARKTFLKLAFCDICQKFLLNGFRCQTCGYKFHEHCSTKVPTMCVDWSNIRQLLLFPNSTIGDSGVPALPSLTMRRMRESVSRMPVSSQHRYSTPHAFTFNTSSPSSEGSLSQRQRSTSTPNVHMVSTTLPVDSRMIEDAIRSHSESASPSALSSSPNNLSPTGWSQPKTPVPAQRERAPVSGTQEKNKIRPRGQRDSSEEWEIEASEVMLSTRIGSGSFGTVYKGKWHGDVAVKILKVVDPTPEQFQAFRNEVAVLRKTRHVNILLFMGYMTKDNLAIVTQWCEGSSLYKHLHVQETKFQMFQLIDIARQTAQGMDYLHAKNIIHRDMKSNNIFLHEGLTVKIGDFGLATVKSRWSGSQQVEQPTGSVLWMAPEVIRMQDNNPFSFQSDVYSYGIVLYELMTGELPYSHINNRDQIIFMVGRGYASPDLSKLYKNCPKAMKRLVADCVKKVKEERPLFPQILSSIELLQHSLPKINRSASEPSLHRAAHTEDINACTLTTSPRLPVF
Sequence of C-Raf FL (P63104 whole entry partner): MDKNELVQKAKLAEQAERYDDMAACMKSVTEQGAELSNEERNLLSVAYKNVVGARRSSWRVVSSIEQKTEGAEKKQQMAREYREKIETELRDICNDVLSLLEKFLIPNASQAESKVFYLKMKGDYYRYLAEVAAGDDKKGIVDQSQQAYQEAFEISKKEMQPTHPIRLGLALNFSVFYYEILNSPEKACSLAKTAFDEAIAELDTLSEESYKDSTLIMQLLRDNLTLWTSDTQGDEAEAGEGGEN

SMILES	IC50
Cc1ccc(NC(=O)c2cc(C(F)(F)F)ccn2)cc1-c1cc(NCCO)nc(C2(O)CCOCC2)c1 [Example 303, N-(3-(2-((2-hydroxyethyl)amino)-6-(4-hydroxytetrahydro-2H-pyran-4-yl)pyridin-4-yl)-4-methylphenyl)-4-(trifluoromethyl) picolinamide]	1.99 nM
Cc1ncc(NC(=O)c2cccc(C(F)(F)F)c2)cc1-c1cc(N2CCOC2=O)nc(C2(O)CCOCC2)c1 [Example 301, N-(2′-(4-hydroxytetrahydro-2H-pyran-4-yl)-2-methyl-6′-(2-oxooxazolidin-3-yl)-[3,4′-bipyridin]-5-yl)-3-(trifluoromethyl) benzamide]	0.951 nM
CCOc1ncc(-c2cc(NC(=O)c3cccc(C(F)(F)F)c3)cnc2C)cc1C1(O)CCOC1 (stereo not shown) [Example 294, N-(6′-ethoxy-5′-(3-hydroxytetrahydro-furan-3-yl)-2-methyl-[3,3′-bipyridin]-5-yl)-3-(trifluoromethyl) benzamide]	2 nM
Cc1ccc(NC(=O)c2ccnc(C(F)(F)F)c2)cc1-c1cc(C2CCOCC2)c(NC[C@H](C)O)nn1 [Example 311, (S)-N-(3-(6-((2-hydroxypropyl)amino)-5-(tetrahydro-2H-pyran-4-yl)pyridazin-3-yl)-4-methylphenyl)-2-(trifluoromethyl) isonicotinamide]	0.05 nM
COc1ncc(-c2cc(C(=O)Nc3cc(C(C)(C)N)cc(C(F)(F)F)c3)ccc2C)cc1C1(O)COC1 [Example 150, N-(3-(2-aminopropan-2-yl)-5-(trifluoromethyl)phenyl)-3-(5-(3-hydroxyoxetan-3-yl)-6-methoxypyridin-3-yl)-4-methylbenzamide]	3 nM
Cc1ccc(NC(=O)c2ccnc(C(C)(F)F)c2)cc1-c1cc(C2(O)COC2)cc(C2(F)COC2)c1 [Example 136, 2-(1,1-difluoroethyl)-N-(3′-(3-fluorooxetan-3-yl)-5′-(3-hydroxyoxetan-3-yl)-6-methyl-[1,1′-biphenyl]-3-yl)isonicotinamide]	0.177 nM
Cc1ccc(NC(=O)c2ccnc(C(C)(F)F)c2)cc1-c1cc(OCCO)nc(C2(CF)COC2)c1 [Example 56, 2-(1,1-difluoroethyl)-N-(3-(2-(3-(fluoromethyl)oxetan-3-yl)-6-(2-hydroxyethoxy)pyridin-4-yl)-4-methylphenyl)isonicotin-amide]	0.281 nM
CCOc1nnc(-c2cc(NC(=O)NCCC(C)(C)C)ccc2C)cc1C1CCOCC1 [Example 318, 1-(3,3-dimethylbutyl)-3-(3-(6-ethoxy-5-(tetrahydro-2H-pyran-4-yl)pyridazin-3-yl)-4-methylphenyl)urea]	0.1 nM
Cc1ncc(NC(=O)c2ccnc(C(C)(C)F)c2)cc1-c1cc(C2(O)COC2)cc(C2(F)COC2)c1 [Example 142, N-(5-(3-(3-fluorooxetan-3-yl)-5-(3-hydroxyoxetan-3-yl)phenyl)-6-methylpyridin-3-yl)-2-(2-fluoropropan-2-yl)isonicotinamide]	11.2 nM
Cc1ccc(NC(=O)c2ccnc(C(C)(F)F)c2)cc1-c1cc(OCCO)nc(C2(CF)CCOCC2)c1 [Example 211, 2-(1,1-difluoroethyl)-N-(3-(2-(4-(fluoromethyl)tetrahydro-2H-pyran-4-yl)-6-(2-hydroxyethoxy)pyridin-4-yl)-4-methylphenyl) isonicotinamide]	0.3 nM
Cc1ccc(NC(=O)c2cncc(C(F)(F)F)c2)cc1-c1cc(OCCO)nc(C2CCOCC2)c1 [Example 265, N-(3-(2-(2-hydroxyethoxy)-6-(tetrahydro-2H-pyran-4-yl)pyridin-4-yl)-4-methylphenyl)-5-(trifluoromethyl) nicotinamide]	0.1 nM
CCOc1ncc(-c2cc(NC(=O)c3cnnc(C(F)(F)F)c3)cnc2C)cc1C1CCOCC1 [Example 163, N-(6′-ethoxy-2-methyl-5′-(tetrahydro-2H-pyran-4-yl)-[3,3′-bipyridin]-5-yl)-6-(trifluoromethyl) pyridazine-4-carboxamide]	0.3 nM
COC1(c2cc(-c3cc(NC(=O)c4ccnc(C(F)(F)F)c4)ccc3C)cnc2OCCO)COC1 [Example 59, N-(3-(6-(2-hydroxyethoxy)-5-(3-methoxyoxetan-3-yl)pyridin-3-yl)-4-methylphenyl)-2-(trifluoromethyl)isonicotin-amide]	0.103 nM
Cc1ccc(NC(=O)c2ccnc(C(F)(F)F)c2)cc1-c1cc(C2(C)COC2)c(OCCO)nn1 [Example 14, N-(3-(6-(2-hydroxyethoxy)-5-(3-methyloxetan-3-yl)pyridazin-3-yl)-4-methylphenyl)-2-(trifluoromethyl)isonicotinamide]	0.2 nM
Cc1ccc(NC(=O)c2cc(C(F)(F)F)cnn2)cc1-c1cc(OC[C@H](O)CO)nc(C2CCOCC2)c1 [Example 274]	0.03 nM
CCOc1ncc(-c2cc(NC(=O)c3ccnc(C(C)(C)C#N)c3)cnc2C)cc1C1(CF)CCOC1 (stereo not shown) [Example 166, 2-(2-cyanopropan-2-yl)-N-(6′-ethoxy-5′-(3-(fluoromethyl)tetrahydrofuran-3-yl)-2-methyl-[3,3′-bipyridin]-5-yl)isonicotinamide]	2 nM
COC1(c2cc(-c3cc(NC(=O)c4cccc(C(F)(F)F)c4)ccc3C)cc(NCCO)n2)COC1 [Example 153, N-(3-(2-((2-hydroxyethyl)amino)-6-(3-methoxyoxetan-3-yl)pyridin-4-yl)-4-methylphenyl)-3-(trifluoromethyl)benzamide]	0.04 nM
Cc1ncc(NC(=O)c2cccc(C(F)(F)F)c2)cc1-c1cc(NCCO)nc(C2(O)CCOCC2)c1 [Example 302, N-(2′-((2-hydroxyethyl)amino)-6′-(4-hydroxytetrahydro-2H-pyran-4-yl)-2-methyl-[3,4′-bipyridin]-5-yl)-3-(trifluoromethyl) benzamide]	1.53 nM
CCOc1nnc(-c2cc(NC(=O)c3ccnc(C(F)(F)F)c3)cnc2C)cc1C1CCOCC1 [Example 236, N-(5-(6-ethoxy-5-(tetrahydro-2H-pyran-4-yl)pyridazin-3-yl)-6-methylpyridin-3-yl)-2-(trifluoromethyl) isonicotinamide]	0.3 nM
CCOc1ncc(-c2cc(NC(=O)c3cnnc(C(C)(C)C#N)c3)cnc2C)cc1C1CCOCC1 [Example 161]	2 nM
Cc1ncc(NC(=O)c2ccnc(C(C)(C)C#N)c2)cc1-c1cc(C2(O)COC2)cc(C2(F)COC2)c1 [Example 143, 2-(2-cyanopropan-2-yl)-N-(5-(3-(3-fluorooxetan-3-yl)-5-(3-hydroxyoxetan-3-yl)phenyl)-6-methylpyridin-3-yl)isonicotinamide]	4.36 nM
CCOc1ncc(-c2cc(NC(=O)c3ccnc(C(C)(C)F)c3)cnc2C)cc1C1(C)COC1 [Example 3, N-(6′-ethoxy-2-methyl-5′-(3-methyloxetan-3-yl)-[3,3′-bipyridin]-5-yl)-2-(2-fluoropropan-2-yl)isonicotinamide]	0.5 nM
Cc1ccc(NC(=O)c2ccnc(C(F)(F)F)c2)cc1-c1cc(NCCO)nc(C2(O)CCOCC2)c1 [Example 287, N-(3-(2-((2-hydroxyethyl)amino)-6-(4-hydroxytetrahydro-2H-pyran-4-yl)pyridin-4-yl)-4-methylphenyl)-2-(trifluoromethyl)isonicotinamide]	0.393 nM
Cc1ccc(NC(=O)c2cccc(C(F)(F)F)c2)cc1-c1cc(C2COC2)c2nccn2n1 [Example 6, N-(4-methyl-3-(8-(oxetan-3-yl)imidazo[1,2-b]pyridazin-6-yl)phenyl)-3-(trifluoromethyl)benzamide]	0.3 nM
Cc1ccc(NC(=O)c2ccnc(C(C)(C)C#N)c2)cc1-c1cc(C2CCOCC2)nc(N(CCO)CCO)c1 [Example 179, N-(3-(2-(bis(2-hydroxyethyl)amino)-6-(tetrahydro-2H-pyran-4-yl)pyridin-4-yl)-4-methylphenyl)-2-(2-cyanopropan-2-yl) isonicotinamide]	0.795 nM
Cc1ccc(NC(=O)c2ccnc(C(F)(F)F)c2)cc1-c1cc(OCCO)nc(C2(F)CCOCC2)c1 [Example 306, N-(3-(2-(4-fluorotetrahydro-2H-pyran-4-yl)-6-(2-hydroxy-ethoxy)pyridin-4-yl)-4-methyl-phenyl)-2-(trifluoromethyl) isonicotinamide]	0.83 nM
Cc1ccc(NC(=O)c2cnc(C(F)(F)F)cn2)cc1-c1cc(OCCO)nc(C2CCOCC2)c1 [Example 262, N-(3-(2-(2-hydroxyethoxy)-6-(tetrahydro-2H-pyran-4-yl)pyridin-4-yl)-4-methylphenyl)-5-(trifluoromethyl) pyrazine-2-carboxamide]	1 nM
COC1(c2cc(-c3cc(NC(=O)c4ccnc(C(C)(C)F)c4)cnc3C)cnc2OCCO)COC1 [Example 61, 2-(2-fluoropropan-2-yl)-N-(6′-(2-hydroxyethoxy)-5′-(3-methoxyoxetan-3-yl)-2-methyl-[3,3′-bipyridin]-5-yl)isonicotinamide]	1.32 nM
